# Where a name gives a salt, the structure may show the parent alone. Read-outs that look alike come from different tables or passages of the source.
# Experiments:
# Type IV PDE = assay: PDE IV inhibition: hydrolysis of [3H]-cyclic AMP by isolated Type IV PDE; type: biochemical, bovine
# Protocol: The Type IV PDE is isolated from bovine tracheal smooth muscle using a procedure similar to that previously described by Silver, P. J., Hamel, L. T., Perrone, M. H. Bentley, R. G. Bushover, C. R., Evans, D. B.: Eur. J. Pharmacol. 150:85,1988.(1). Briefly, smooth muscle from bovine trachea is minced and homogenized using a polytron in 10 volumes of an extraction buffer containinhg 10 mM Tris-acetate (pH 7.5), 2 mM magnesium chloride, 1 mM dithiothreitol and 2,000 units/ml of aprotinin. This and all subsequent procedures are performed at 0-4° C. The homogenate is sonicated and then centrifiged at 48,000×g for 30 minutes. The resulting supernatant is applied to a DEAE Trisacryl M column previously equilibrated with sodium acetate and dithiothreitol. After applications of the sample, the column is washed with sodium acetate/dithiothreitol, after which the different forms of PDE are eluted from the column using a linear Tris-HCl/NaCl gradient. Fractions containing Type IV PDE are collected, dialyzed and concentrated to 14% of the original volume. The concentrated fractions are diluted to 50% with ethylene glycol and stored at -20° C.
# Enzyme activity is assessed by measuring the hydrolysis of [^3H]-cyclic AMP, as described by Thompson, W. J., Teraski, W. L., Epstein, P. N., Strada, S. J.: Adv. Cyclic Nucleotide Res. 10:69, 1979. The cyclic AMP concentration used in this assay is 0.2 μM, which approximates the Km value. Protein concentration is adjusted to ensure that no more than 15% of the available substrate is hydrolyzed during the incubation period.
# All test compounds are dissolved in dimethyl sulfoxide (final concentration of 2.5%). This concentration of dimethyl sulfoxide inhibits enzyme activity by approximately 10%.
# [1] = tested on: Guinea pig isolated trachealis muscle; assay: Isolated guinea pig trachea: relaxation of airways muscle; type: cell-based; conditions: compared with theophylline as standard (= 1); cumulative concentration effect curves
# Protocol: The test compound was dissolved in dimethylsulfoxide. Guinea pig isolated trachealis muscle was mounted in a bath containing Krebs solution maintained at 37.5° C. and bubbled with carbogen (95% 02, 5% CO2).
# Tension changes were recorded isometrically using force displacement transducers in conjunction with potentiometric pen recorders.
# The ability of the test compounds to relax airways muscle was investigated by the construction of cumulative concentration effect curves. Each concentration of the test compound was allowed to equilibrate with the tissue for 5 minutes before a concentration increment (ten-fold) was made.
# In each tissue the test compound was compared with theophylline as standard.
# [2] = tested on: ovalbumin-sensitized guinea pigs (eosinophils in BAL); assay: Ovalbumin sensitization and challenge in guinea pigs, differential cell counts in bronchoalveolar lavage; type: in vivo, guinea pig; conditions: 5 mg/kg ip one hour prior to ovalbumin challenge; for % Eosinophils in BAL x ± se: BAL 24 hours after aerosol exposure; for % Inhibition: eosinophils in BAL versus vehicle
# Protocol: (i) The effect of test compounds in a model of bronchial hyperresponsiveness (BHR) and cellular infiltration in the guinea pig induced by ovalbumin (see, for example Morley et al, Agents and Actions, Supplement, 1988, 23, 187) were studied.
# (ii) Sensitization and Challenge procedure: Male Dunkin Hartley guine pigs (Charles River) (200-250 g) were injected i.p. with ovalbumin (OVA) (0.5 ml/animal; 20 μg OVA in AlOH)3 (moist gel)); this preparation produced an injectable stable suspension containing excess Al(OH)3. Sham animals were injected with 0.5 ml Al(OH)3 alone. After a period of 18-21 days animals were exposed to an aerosol of OVA (100 μg/ml) for 1 hour in an exposure chamber.
# (iii) Bronchoalveloar lavage: Animals were anaesthetized, 24 hours after aerosol exposure, with urethane (25%, w/v, 7 ml/kg, i.p.) and the trachea cannulated. Bronchoalveo-lar lavage (BAL) was performed by instilling 5 ml sterile saline into the lungs via the tracheal cannula and the fluid was immediately removed. The fluid was reinjected and the procedure repeated 5 times in total. […] Total cell counts were perfomed on the resultant BAL fluid using an improved Neubauer haemocytometer. Cytospin preparations were prepared using a Shandon Cytospin 2 centrifuge. Two drops of BAL fluid were added to each cytospin cup and the samples were centrifuged for 1 min at 1300 r.p.m. Slides were fixed in acetone and stained with haemotoxylin and carbol chromotrope according to the method described by Lendrum (Lendrum 1944), differential cell counts were performed on each slide by counting 200 cells at random, the cell types were classified as neutrophils, eosinophils and mononuclear cells according to standard morphological criteria. Cells were counted blind. The results are expressed as the number of neutrophils, eosinophils and mononuclear cells per ml of BAL fluid. The remaining BAL fluid was centrifuged (10 min., 1000 g) and the resultant cells and cell free supernatants were aliquotted and frozen for later assays. Compounds were solu-bilized in either DMSO or saline administered intraperitoreally at a dose of 5 mg/kg one hour prior to ovalbumin challenge.
# [3] = adenines, Table 7, read-out: calc PDE IV IC50
# [4] = dithioxanthines, Table 5, read-out: IC50 PDE IV
# [5] = adenines, Table 4, cyclic AMP 0.2 μM, read-out: calc PDE IV IC50
# [6] = thioisoguanines, Table 2, cyclic AMP 0.2 μM, read-out: Calc IC50 PDE IV
structure (smiles),measurement,setting,value
CCNc1ncn(Cc2ccc(OC)c(OC3CCCC3)c2)c2nc(C(C)(C)OCc3ccccc3)nc1-2.Cl [8-(1-Benzyloxy-1-methyl-ethyl)-3-(3-cyclopentyloxy-4-methoxy-benzyl)-6-ethylamino-3H-purine Hydrochloride],melting point,,148 to 150 °C
same,IC50,Type IV PDE; [3],850 nM
CCCCCCn1cnc(NCC)c2ncnc1-2 (as salt: hydrochloride) [6-Ethylamino-3-hexyl-3H-purine],melting point,,190 to 195 °C
CCNc1ncn(CC)c2nc(C3CC3)nc1-2 [8-Cyclopropyl-3-ethyl-6-ethylamino-3H-purine],In Vitro Activity,[1],43.7
same,IC50,Type IV PDE; [3],27100 nM
CCCCCCn1cnc(NCC)c2ncnc1-2 [6-Ethylamino-3-hexyl-3H-purine],In Vitro Activity,[1],25.6
COc1ccc(Cn2cnc(N)c3nc(C(C)(C)OCc4ccccc4)nc2-3)cc1OC1CCCC1.Cl [6-Amino-8-(1-benzyloxy-1-methyl-ethyl)-3-(3-cyclopentyloxy-4-methoxy-benzyl)-3H-purine Hydrochloride],melting point,,201 to 203 °C
same,IC50,Type IV PDE; [3],5 nM
CCNc1ncn(Cc2ccccc2)c2ncnc1-2 [3-Benzyl-6-ethylamino-3H-purine],In Vitro Activity,[1],18.5
same,melting point,,187 to 188 °C
"COc1ccc(Cn2c(=S)[nH]c(=S)c3[nH]c(C(C)C)nc32)cc1OC1CCCC1 [3-(3-cyclopentyloxy-4-methoxybenzyl)-3,7-dihydro-8-isopropyl-2,6-dithio-1H-purine-2,6-dione]",% Eosinophils in BAL x ± se,[2],17 ± 3%
same,% Inhibition,[2],47%
same,IC50,Type IV PDE; [4],600 nM
same,IC50,Type IV PDE; read-out: PDE IV I50,800 nM
CCNc1ncn(Cc2ccc(OC)c(OC3CCCC3)c2)c2nc(C(C)C)nc1-2.Cl [3-(3-Cyclopentyloxy-4-methoxybenzyl)-6-ethylamino-8-isopropyl-3H-purine Hydrochloride],% Eosinophils in BAL x ± se,[2],12 ± 2%
same,% Inhibition,[2],64%
same,IC50,Type IV PDE; read-out: PDE IV I50,320 nM
CCNc1ncn(Cc2ccc(Cl)cc2)c2nc(C(C)C)nc1-2 [3-(4-chlorobenzyl)-6-ethylamino-8-isopropyl-3H-purine],melting point,,215 to 217 °C
same,IC50,Type IV PDE; read-out: PDE IV I50,1130 nM
COc1ccc(Cn2cnc(N)c3nc(C(C)(C)OCc4ccc(F)cc4)nc2-3)cc1OC1CCCC1.Cl [6-Amino-3-(3-cyclopentyloxy-4-methoxy-benzyl)-8-(1-(4-fluorobenzyloxy)-1-methyl-ethyl)-3H-purine hydrochloride],melting point,,165 to 174 °C
same,IC50,Type IV PDE; [3],34 nM
"Cn1c(=O)c2[nH]cnc2n(C)c1=O [Theophylline, reference compound]",In Vitro Activity,[1],1
CCNc1ncn(CCC(C)C)c2nc(C3CC3)nc1-2.Cl [8-cyclopropyl-6-ethylamino-3-(3-methylbutyl)-3H-purine hydrochloride],% Eosinophils in BAL x ± se,[2],16 ± 4%
same,% Inhibition,[2],52%
same,IC50,Type IV PDE; [5],2450 nM
"COc1ccc(Cn2cnc(N)c3nc(C(C)(C)OCc4ccc(F)cc4)nc2-3)cc1OC (as salt: hydrochloride) [6-Amino-3-(3,4-dimethoxybenzyl)-8-(1-(4-fluorobenzyloxy-1-methyl-ethyl)-3H-purine Hydrochloride]",melting point,,172 to 175 °C
CCNc1ncn(Cc2cc[n+]([O-])cc2)c2nc(C(C)C)nc1-2 [6-Ethylamino-3-(1-oxopyridin-4-yl-methyl)-8-isopropyl-3H-purine],IC50,Type IV PDE; [3],385000 nM
"CCCn1c(=S)nc(NC2CCCC2)c2[nH]c(C3CC3)nc21 [6-cyclopentylamino-8-cyclopropyl-3,7-dihydro-3-propyl-2-thio-2H-purin-2-one hydrochloride]",IC50,Type IV PDE; read-out: PDE IV I50,7410 nM
CCNc1ncn(Cc2ccc(OC)c(OC3CCC(O)C3)c2)c2nc(C(C)C)nc1-2 (stereo not shown) [3-(3-((3-hydroxy)cyclopentyloxy)-4-methoxybenzyl)-6-ethylami] [3-(3-((3-hydroxy)cyclopentyloxy)-4-methoxybenzyl)-6-ethylamino-8-isopropyl-3H-purine],IC50,Type IV PDE; [3],1360 nM
CCNc1ncn(Cc2ccc(Cl)cc2)c2ncnc1-2.Cl [3-(4-chlorobenzyl)-6-ethylamino-3H-purine hydrochloride],melting point,,251 to 254 °C
same,IC50,Type IV PDE; [5],37800 nM
"CCNc1nc(=S)n(Cc2ccccc2)c2nc(C(C)C)[nH]c12 [3-benzyl-6-ethylamino-3,7-dihydro-8-(1-methyl-ethyl)-2-thio-2H-purin-2-one]",IC50,Type IV PDE; [6],28400 nM
CCCCn1cnc(NCC)c2ncnc1-2 [3-butyl-6-ethylamino-3H-purine hydrochloride],IC50,Type IV PDE; [5],66400 nM
CCCn1cnc(NC2CC2)c2nc(C3CC3)nc1-2 [8-cyclopropyl-6-cyclopropylamino-3-propyl-3H-purine hydrochloride],IC50,Type IV PDE; [5],7900 nM
CCNc1ncn(Cc2ccc(OC)c(OCC3CCCC3)c2)c2nc(C(C)C)nc1-2 [6-Ethylamino-3-[3-cyclopentylmethoxy-4-methoxy-benzyl]-8-isopropyl-3H-purine],IC50,Type IV PDE; [3],12500 nM
CCNc1ncn(Cc2cccc(Cl)c2)c2nc(C(C)C)nc1-2 [3-(3-chlorobenzyl)-6-ethylamino-8-isopropyl-3H-purine],IC50,Type IV PDE; [3],2150 nM
CCCCOc1cc(Cn2cnc(NCC)c3nc(C(C)C)nc2-3)ccc1OC [6-Ethylamino-3-(3-butoxy-4-methoxy-benzyl)-8-isopropyl-3H purine],IC50,Type IV PDE; [3],1400 nM
CCNc1ncn(Cc2ccc(OC)c(OC3CCCC3)c2)c2nc(C(C)(C)O)nc1-2 [3-[(3-cyclopentyloxy-4-methoxy)benzyl]-6-ethylamino-8-[(1-hy] [3-[(3-cyclopentyloxy-4-methoxy)benzyl]-6-ethylamino-8-[(1-hydroxy-1-methyl)ethyl]-3H-purine],IC50,Type IV PDE; [3],850 nM
"CCCn1c(=S)[nH]c(=S)c2[nH]c(C3CC3)nc21 [8-cyclopropyl-3,7-dihydro-3-propyl-2,6-dithio-1H-purine-2,6-dione]",IC50,Type IV PDE; [4],64500 nM
"CC(C)c1nc2c([nH]1)c(NC1CCCC1)nc(=S)n2Cc1ccc(Cl)cc1 [3-(4-chlorobenzyl)-6-cyclopentylamino-3,7-dihydro-8-isopropyl-2-thio-2H-purin-2-one]",IC50,Type IV PDE; [6],114000 nM
"CCCCn1c(=S)[nH]c(=S)c2[nH]c(C(C)C)nc21 [3-butyl-3,7-dihydro-8-(1-methylethyl)-2,6-dithio-1H-purine-2,6-dione]",IC50,Type IV PDE; [4],5930 nM
"CCNc1ncn(Cc2ccc3c(c2)OCO3)c2nc(C(C)C)nc1-2 [6-ethylamino-3-(3-,4-methylenedioxybenzyl)-8-isopropyl-3H-purine]",IC50,Type IV PDE; [3],440 nM
"CCCNc1nc(=S)n(CC2CC2)c2nc(C(C)C)[nH]c12 [3-(cyclopropylmethyl)-3,7-dihydro-8-(1-methyl-ethyl)-6-propylamino-2-thio-2H-purin-2-one hydrochloride]",IC50,Type IV PDE; [6],24000 nM

# From patent US6413975B1, “Purine derivatives having phosphodiesterase iv inhibition activity” (Euro-Celtique, S.A., priority 1999, dated 2002)
